{"source": "paper PMC3062907", "about": "(Advanced synthesis & catalysis, 2008)", "key": {"[1]": {"tested_on": "Rb (retinoblastoma)-negative cells", "conditions": "cells resistant to 17-AAG; ref x; cited from earlier work"}, "[2]": {"conditions": "ref ix; cited from earlier work"}, "[3]": {"conditions": "in vivo settings; earlier work of the authors, no reference given; cited from earlier work"}, "Hsp90": {"tested_on": "Hsp90", "assay": "Hsp90 inhibition", "type": "biochemical", "conditions": "read-out: Hsp90 inhibition (IC50); in vitro; preliminary evaluation"}, "[4]": {"tested_on": "MCF-7 breast cancer cells", "conditions": "read-out: inhibitory activity against MCF-7 breast cancer cells (IC50); ref xiii; cited from earlier work"}, "[5]": {"tested_on": "human colon carcinoma (HCT-116)", "assay": "In vivo study in mice implanted with human colon carcinoma", "conditions": "mice implanted with HCT-116; 75 mg/kg, QDx7; preliminary"}}, "data": [{"smiles": "C[C@@H]1C[C@H]2O[C@@H]2/C=C\\C=C\\C(=O)Cc2c(Cl)c(O)cc(O)c2C(=O)O1", "note": "[Radicicol (1), radicicol]", "values": [{"measurement": "cytotoxicity against Rb-negative cells", "setting": "[1]", "result": "potent cytotoxicity"}, {"measurement": "hepatotoxicity compared with 17-AAG", "setting": "[2]", "result": "significantly less hepatotoxic than 17-AAG (3)"}, {"measurement": "in vivo activity", "setting": "[3]", "result": "inactive"}]}, {"smiles": "C=CCNC1=C2C[C@@H](C)C[C@H](OC)[C@H](O)[C@@H](C)/C=C(\\C)[C@H](OC(N)=O)[C@@H](OC)/C=C\\C=C(/C)C(=O)NC(=CC1=O)C2=O", "note": "[17-AAG (3), 17-AAG]", "values": [{"measurement": "IC50", "setting": "Hsp90", "result": "[…]"}]}, {"smiles": "C[C@@H]1C[C@H]2C[C@@H]2/C=C\\C=C\\C(=O)Cc2c(Cl)c(O)cc(O)c2C(=O)O1", "note": "[cycloproparadicicol (4), cycloproparadicicol]", "values": [{"measurement": "IC50", "setting": "[4]", "result": 49, "unit": "nM"}, {"measurement": "IC50", "setting": "Hsp90", "result": 160, "unit": "nM"}, {"measurement": "tumor cell growth suppression", "setting": "[5]", "result": 68, "unit": "%"}]}]}
